The term IC50 denotes the point on the concentration scale where inhibition reaches its midpoint.

The target in one experiment is T1, K-Ras G12D (Homo sapiens, UniProt P01116, G12D).
T1 construct: made in house; host or cells: E. coli BL21 (DE3)
Description: HTRF resonance energy transfer assay, K-Ras G12D / SOS1 interaction. The class given is biochemical. The note with it: HTRF assay of Example 5; read-out: IC50 against K-Ras G12D. An outline of the steps: (§1)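 GST-tagged K-Ras (WT or mutant) bound to anti-GST-Eu donor was mixed with His-hSOS1 bound to anti-6His-XL665 acceptor in ~5 mM HEPES pH 7.4, 150 mM NaCl, 1 mM DTT, 0.05% BSA, 0.0025% Igepal. HTRF (ex 337, em 620/665 nm) was read after ~10 min or longer. IC50 came from the 665/620 ratio over duplicates from 10 μM to 0.01 μM.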
(In general: In TR-FRET formats the signal depends on donor and acceptor labels being close together.)

The target in a further experiment is T2, K-Ras G12S (Homo sapiens, UniProt P01116, G12S).
T2 construct: made in house; host or cells: E. coli BL21 (DE3)
Description: HTRF resonance energy transfer assay, K-Ras G12S / SOS1 interaction. The note with it: HTRF assay of Example 5; read-out: IC50 against K-Ras G12S. The class given is biochemical. The essentials:
as §1

A further experiment deals with T3, K-Ras G12V (Homo sapiens, UniProt P01116, G12V).
T3 construct: made in house; host or cells: E. coli BL21 (DE3)
Description: HTRF resonance energy transfer assay, K-Ras G12V / SOS1 interaction. The class given is biochemical. The note with it: HTRF assay of Example 5; read-out: IC50 against K-Ras G12V. An outline of the steps:
as §1

Another experiment addresses T4, K-Ras WT (Homo sapiens, UniProt P01116).
T4 construct: made in house; host or cells: E. coli BL21 (DE3)
The experiment can be described thus: HTRF resonance energy transfer assay, K-Ras WT / SOS1 interaction. The class given is biochemical. The note with it: HTRF assay of Example 5; read-out: IC50 against K-Ras WT. The essentials: as §1

In a further experiment the test system is GP2D cells. Description: Ras cellular assay, growth of cells with K-Ras G12D mutation (CellTiter-Glo). The class given is cell-based. The note with it: cell growth, Example 9, G12D mutation, read-out: IC50 against GP2D cells. A general note: ATP-based viability assays read luminescence as a measure of living cells.
In the next experiment the test system is A549 cells. The experiment can be described thus: Ras cellular assay, growth of cells with K-Ras G12S mutation (CellTiter-Glo). The class given is cell-based. The note with it: Homo sapiens, cell growth, Example 9, G12S mutation, read-out: IC50 against A549 cells. An outline of the steps: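 A549 cells (K-Ras G12S) in RPMI-1640 with 10% heat-inactivated FBS, seeded e.g. 800 per well in standard or ultra-low-attachment 384-well plates, treated next day with a dilution series (e.g. 10-point, 3-fold). Viability by CellTiter-Glo luminescence about 6 days later; IC50 from four-parameter fit.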

A further experiment deals with SW620 cells. The experiment can be described thus: Ras cellular assay, growth of cells with K-Ras G12V mutation (CellTiter-Glo). The class given is cell-based. The note with it: Homo sapiens, SW-620; cell growth, Example 9, G12V mutation; read-out: IC50 against SW620 cells. The essentials: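 SW620 (K-Ras G12V) cells, e.g. 800/well in RPMI-1640 with 10% heat-inactivated FBS on standard or ultra-low attachment plates, were dosed the day after plating with e.g. a 10-point 3-fold series. Viability by CellTiter-Glo luminescence about 6 days later; IC50 from four-parameter fit.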

T1 sequence (P01116 1-188 isoform P01116-2 G12D): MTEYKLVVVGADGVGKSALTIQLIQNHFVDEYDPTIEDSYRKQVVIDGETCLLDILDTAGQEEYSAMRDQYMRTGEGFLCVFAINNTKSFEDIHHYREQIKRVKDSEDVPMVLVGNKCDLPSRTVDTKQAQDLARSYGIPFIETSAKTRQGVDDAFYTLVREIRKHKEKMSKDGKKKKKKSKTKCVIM
T3 sequence (P01116 1-188 isoform P01116-2 G12V): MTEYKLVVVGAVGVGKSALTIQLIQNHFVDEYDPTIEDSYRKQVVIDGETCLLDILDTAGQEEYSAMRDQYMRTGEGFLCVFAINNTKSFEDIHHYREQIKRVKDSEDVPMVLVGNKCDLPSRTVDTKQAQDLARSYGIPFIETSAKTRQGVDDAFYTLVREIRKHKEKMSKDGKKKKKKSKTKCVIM
T2 sequence (P01116 1-188 isoform P01116-2 G12S): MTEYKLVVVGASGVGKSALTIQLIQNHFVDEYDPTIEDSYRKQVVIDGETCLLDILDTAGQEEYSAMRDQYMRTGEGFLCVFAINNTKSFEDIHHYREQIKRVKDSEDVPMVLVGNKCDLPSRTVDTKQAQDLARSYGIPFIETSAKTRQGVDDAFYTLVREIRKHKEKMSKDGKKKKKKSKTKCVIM
T4 sequence (P01116 1-188 isoform P01116-2): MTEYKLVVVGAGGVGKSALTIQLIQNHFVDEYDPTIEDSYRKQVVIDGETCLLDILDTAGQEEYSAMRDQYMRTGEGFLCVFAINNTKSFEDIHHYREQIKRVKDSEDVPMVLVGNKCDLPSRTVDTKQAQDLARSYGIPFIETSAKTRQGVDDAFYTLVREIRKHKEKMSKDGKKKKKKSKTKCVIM

With `COC1CC(C(=O)N2CCC(N3CCOc4c(Cl)c(-c5ccc(F)c6sc(N)c(C#N)c56)c(F)c5nc(OC[C@@]67CCCN6C[C@H](F)C7)nc3c45)C2)C1` (stereo partly drawn) [Compound 881, 2-amino-4-(8-chloro-10-fluoro-2-(((2R,7aS)-2-fluorotetrahydro-1H-pyrrolizin-7a(5H)-yl)methoxy)-4-(1-(3-methoxycyclobutane-1-carbonyl)pyrrolidin-3-yl)-5,6-dihydro-4H-[1,4]oxazepino[5,6,7-de]quinazolin-9-yl)-7-fluorobenzo[b]thiophene-3-carbonitrile], the half-inhibitory concentration (IC50) is less than 100 nM at K-Ras G12D; less than 100 nM on K-Ras G12S; less than 100 nM at K-Ras G12V; less than 100 nM at K-Ras WT; less than 500 nM in the experiment on GP2D cells; less than 5000 nM in the experiment with A549 cells. Further, the 50% inhibitory concentration (IC50) with SW620 cells is less than 5000 nM.

With `CC(C)[C@H]1COc2c(Cl)c(-c3ccc(F)c4sc(N)c(C#N)c34)c(F)c3nc(OC[C@@]45CCCN4C[C@H](F)C5)nc(c23)N1CC(F)F` [Compound 884, 2-amino-4-((5S)-8-chloro-4-(2,2-difluoroethyl)-10-fluoro-2-(((2R,7aS)-2-fluorotetrahydro-1H-pyrrolizin-7a(5H)-yl)methoxy)-5-isopropyl-5,6-dihydro-4H-[1,4]oxazepino[5,6,7-de]quinazolin-9-yl)-7-fluorobenzo[b]thiophene-3-carbonitrile], the IC50 at K-Ras G12D was less than 100 nM; on K-Ras G12S, less than 100 nM; on K-Ras G12V it was less than 100 nM; at K-Ras WT, less than 100 nM; in the experiment with GP2D cells it was less than 500 nM; with A549 cells, less than 5000 nM. For the same compound, in the experiment with SW620 cells, the IC50 is less than 5000 nM.

On to `CC1COc2c(Cl)c(-c3ccc(F)c4sc(N)c(C#N)c34)c(F)c3nc(OC[C@@]45CCCN4C[C@H](F)C5)nc(c23)N1[C@@H]1CCOC1` (stereo partly drawn) [Compound 888, 2-amino-4-(8-chloro-10-fluoro-2-(((2R,7aS)-2-fluorotetrahydro-1H-pyrrolizin-7a(5H)-yl)methoxy)-5-methyl-4-((R)-tetrahydrofuran-3-yl)-5,6-dihydro-4H-[1,4]oxazepino[5,6,7-de]quinazolin-9-yl)-7-fluorobenzo[b]thiophene-3-carbonitrile], for which the half-inhibitory concentration (IC50) was less than 100 nM on K-Ras G12D; less than 100 nM at K-Ras G12S; less than 100 nM at K-Ras G12V; less than 100 nM on K-Ras WT; less than 500 nM in the experiment with GP2D cells; less than 5000 nM with A549 cells. For the same compound, the IC50 in the experiment with SW620 cells is less than 5000 nM.

In the case of `N#Cc1c(N)sc2c(F)ccc(-c3c(Cl)c4c5c(nc(OC[C@@]67CCCN6C[C@H](F)C7)nc5c3F)N(C3CC3)CCO4)c12` [Compound 891, 2-amino-4-(8-chloro-4-cyclopropyl-10-fluoro-2-(((2R,7aS)-2-fluorotetrahydro-1H-pyrrolizin-7a(5H)-yl)methoxy)-5,6-dihydro-4H-[1,4]oxazepino[5,6,7-de]quinazolin-9-yl)-7-fluorobenzo[b]thiophene-3-carbonitrile], the concentration for half-maximal inhibition (IC50) on K-Ras G12D is less than 100 nM; on K-Ras G12S, less than 100 nM; on K-Ras G12V, less than 100 nM; on K-Ras WT, less than 100 nM; in the experiment on GP2D cells, less than 500 nM; in the experiment with A549 cells it was less than 5000 nM. In addition, in the experiment on SW620 cells, the IC50 was less than 5000 nM.

Consider `N#Cc1c(N)sc2c(F)ccc(-c3c(Cl)c4c5c(nc(OC[C@@]67CCCN6C[C@H](F)C7)nc5c3F)N(C3CC5CCC3N5C=O)CCO4)c12` (stereo partly drawn) [Compound 892, 2-amino-4-(8-chloro-10-fluoro-2-(((2R,7aS)-2-fluorotetrahydro-1H-pyrrolizin-7a(5H)-yl)methoxy)-4-(7-formyl-7-azabicyclo[2.2.1]heptan-2-yl)-5,6-dihydro-4H-[1,4]oxazepino[5,6,7-de]quinazolin-9-yl)-7-fluorobenzo[b]thiophene-3-carbonitrile], for which the IC50 was less than 100 nM on K-Ras G12D; less than 100 nM on K-Ras G12S; less than 100 nM at K-Ras G12V; less than 100 nM on K-Ras WT; less than 500 nM with GP2D cells; less than 5000 nM with A549 cells. Also, the IC50 in the experiment on SW620 cells was less than 5000 nM.

Consider `N#Cc1c(N)sc2c(F)ccc(-c3c(Cl)c4c5c(nc(OC[C@@]67CCCN6C[C@H](F)C7)nc5c3F)N(C3CCn5nccc5C3)CCO4)c12` (stereo partly drawn) [Compound 893, 2-amino-4-(8-chloro-10-fluoro-2-(((2R,7aS)-2-fluorotetrahydro-1H-pyrrolizin-7a(5H)-yl)methoxy)-4-(4,5,6,7-tetrahydropyrazolo[1,5-a]pyridin-5-yl)-5,6-dihydro-4H-[1,4]oxazepino[5,6,7-de]quinazolin-9-yl)-7-fluorobenzo[b]thiophene-3-carbonitrile], for which the IC50 at K-Ras G12D was less than 100 nM; at K-Ras G12S, less than 100 nM; on K-Ras G12V, less than 100 nM; on K-Ras WT it was less than 100 nM; in the experiment with GP2D cells, less than 500 nM; in the experiment with A549 cells it was less than 5000 nM. Moreover, the IC50 in the experiment with SW620 cells is less than 5000 nM.

In the case of `CN1c2nc(OC[C@@]34CCCN3C[C@H](F)C4)nc3c(F)c(-c4ccc(F)c5sc(N)c(C#N)c45)c(Cl)c(c23)OCC1CO` (stereo partly drawn) [Compound 900, 2-amino-4-(8-chloro-10-fluoro-2-(((2R,7aS)-2-fluorotetrahydro-1H-pyrrolizin-7a(5H)-yl)methoxy)-5-(hydroxymethyl)-4-methyl-5,6-dihydro-4H-[1,4]oxazepino[5,6,7-de]quinazolin-9-yl)-7-fluorobenzo[b]thiophene-3-carbonitrile], the half-inhibitory concentration (IC50) on K-Ras G12D is less than 100 nM; at K-Ras G12S it was less than 100 nM; at K-Ras G12V, less than 100 nM; on K-Ras WT, less than 100 nM; in the experiment on GP2D cells, less than 500 nM; in the experiment with A549 cells it was less than 5000 nM. In the experiment on SW620 cells, the concentration for half-maximal inhibition (IC50) is less than 5000 nM.

As to `C[C@H](Oc1nc2c3c(c(Cl)c(-c4ccc(F)c5sc(N)c(C#N)c45)c(F)c3n1)OCCN2CC(F)F)[C@@H]1CCCN1C` [Compound 901, 2-amino-4-(8-chloro-4-(2,2-difluoroethyl)-10-fluoro-2-((S)-1-((S)-1-methylpyrrolidin-2-yl)ethoxy)-5,6-dihydro-4H-[1,4]oxazepino[5,6,7-de]quinazolin-9-yl)-7-fluorobenzo[b]thiophene-3-carbonitrile], the IC50 is less than 100 nM on K-Ras G12D; less than 100 nM at K-Ras G12S; less than 100 nM on K-Ras G12V; less than 100 nM at K-Ras WT; less than 500 nM with GP2D cells; less than 5000 nM in the experiment on A549 cells. Moreover, the 50% inhibitory concentration (IC50) with SW620 cells was less than 5000 nM.

For the compound `N#Cc1c(N)sc2c(F)ccc(-c3c(Cl)c4c5c(nc(OC[C@@]67CCCN6C[C@H](F)C7)nc5c3F)N(CC(F)F)[C@@H](CN)CO4)c12` [Compound 914, 2-amino-4-((5S)-5-(aminomethyl)-8-chloro-4-(2,2-difluoroethyl)-10-fluoro-2-(((2R,7aS)-2-fluorotetrahydro-1H-pyrrolizin-7a(5H)-yl)methoxy)-5,6-dihydro-4H-[1,4]oxazepino[5,6,7-de]quinazolin-9-yl)-7-fluorobenzo[b]thiophene-3-carbonitrile], the half-maximal inhibitory concentration (IC50) at K-Ras G12D is less than 100 nM; on K-Ras G12S it was less than 100 nM; at K-Ras G12V it was less than 100 nM; on K-Ras WT, less than 100 nM; in the experiment on GP2D cells it was less than 500 nM; in the experiment on A549 cells, less than 5000 nM. Moreover, the IC50 with SW620 cells was less than 5000 nM.

With `N#Cc1c(N)sc2c(F)ccc(-c3c(Cl)c4c5c(nc(OC[C@@]67CCCN6C[C@H](F)C7)nc5c3F)N(C3CCN(C(=O)[C@@H]5N[C@H]5C5CC5)C3)CCO4)c12` (stereo partly drawn) [Compound 915, 2-amino-4-(8-chloro-4-(1-((2R,3S)-3-cyclopropylaziridine-2-carbonyl)pyrrolidin-3-yl)-10-fluoro-2-(((2R,7aS)-2-fluorotetrahydro-1H-pyrrolizin-7a(5H)-yl)methoxy)-5,6-dihydro-4H-[1,4]oxazepino[5,6,7-de]quinazolin-9-yl)-7-fluorobenzo[b]thiophene-3-carbonitrile], the half-maximal inhibitory concentration (IC50) at K-Ras G12D was less than 100 nM; at K-Ras G12S, less than 100 nM; at K-Ras G12V, less than 100 nM; at K-Ras WT it was less than 100 nM; with GP2D cells, less than 500 nM; with A549 cells, less than 5000 nM. In the experiment on SW620 cells, the IC50 is less than 5000 nM.
